Patent US6355799B1, “Substituted benzene compounds, process for their preparation, and herbicidal and defoliant compositions containing them” (ISK Americas Incorporated, priority 1997, dated 2002)

Tests used:
Assay type in all cases: in vivo
[1] = system: redroot pigweed (Amaranthus retroflexus, AMARE); assay: Pre-emerge test, greenhouse herbicide activity screening; conditions: pre-emerge, rated 14 days after application, 0 = no damage, 100 = complete death
Procedure, shortened: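 Compounds in acetone were track-sprayed at 187 l/ha, 15–1000 g ai/ha, onto sandy loam pots. Pre-emerge seeds were sown one day before spraying, with surface watering afterwards. Post-emerge plants were at the 2–3 leaf stage and sprayed with 0.25% v/v non-ionic surfactant. Injury was rated 0–100 at 14 days.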

[2] = system: upland rice (Oryza sp., var. Tebonnet, RICE); assay: Post-emerge test, crop safety; conditions: phytotoxicity rating 0-100 (0 no damage, 100 complete death), 14 days after application
Procedure, shortened: (§1)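 Rating: 0–100 visual injury, 14 DAA. Application: acetone, 187 l/ha, 15–1000 g ai/ha, flat-fan track sprayer with nozzle 40–45 cm above soil or canopy. Post-emerge runs used 0.25% v/v surfactant on 2–3 leaf plants.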

[3] = system: field corn (Zea mays L., var. Dekalb 535, CORN); assay: Post-emerge test, crop safety; conditions: phytotoxicity rating 0-100 (0 no damage, 100 complete death), 14 days after application
Procedure, shortened: as §1

[4] = system: upland rice (Oryza sp., var. Tebonnet, RICE); assay: Pre-emerge test, crop safety; conditions: pre-emerge, rated 14 days after application, 0 = no damage, 100 = complete death
Procedure, shortened: (§2)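 Plants grown in 10 cm pots of sandy loam mix received acetone-dissolved compounds through a moving flat-fan nozzle. Doses ranged from 15 to 1000 g ai/ha. Pre-emerge pots were seeded one day earlier, post-emerge pots 8–21 days earlier. Fourteen days on, each pot was graded 0–100 for damage.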

[5] = system: field corn (Zea mays L., var. Dekalb 535, CORN); assay: Pre-emerge test, crop safety; conditions: pre-emerge, rated 14 days after application, 0 = no damage, 100 = complete death
Procedure, shortened: as §2

[6] = system: green foxtail (Setaria viridis, SETVI); assay: Pre-emerge test, greenhouse herbicide activity screening; conditions: pre-emerge, rated 14 days after application, 0 = no damage, 100 = complete death
Procedure, shortened: (§3)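 Compounds in acetone were track-sprayed at 15–1000 g ai/ha: pre-emergence onto soil sown the previous day, then top-watered to incorporate and later bottom-watered; post-emergence onto 2–3 leaf plants with 0.25% v/v surfactant, bottom-watered only. Ratings on a 0–100 phytotoxicity scale were taken at day 14.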

[7] = system: johnsongrass (Sorghum halepense, SORHA); assay: as above; conditions: pre-emerge, rated 14 days after application, 0 = no damage, 100 = complete death
Procedure, shortened: as §3

[8] = system: large crabgrass (Digitaria sanguinalis, DIGSA); assay: as above; conditions: pre-emerge, rated 14 days after application, 0 = no damage, 100 = complete death
Procedure, shortened: as §3

[9] = system: velvetleaf (Abutilon theophrasti, ABUTH); assay: as above; conditions: pre-emerge, rated 14 days after application, 0 = no damage, 100 = complete death
Procedure, shortened: as §3

[10] = system: lambsquarters (Chenopodium album, CHEAL); assay: as above; conditions: pre-emerge, rated 14 days after application, 0 = no damage, 100 = complete death
Procedure, shortened: as §3

[11] = system: ivyleaf morningglory (Ipomoea hederacea, IPOHE); assay: as above; conditions: pre-emerge, rated 14 days after application, 0 = no damage, 100 = complete death
Procedure, shortened: as §3

[12] = system: barnyardgrass (Echinochloa crus-galli, ECHCG); assay: as above; conditions: pre-emerge, rated 14 days after application, 0 = no damage, 100 = complete death
Procedure, shortened: as §3

[13] = system: sicklepod (Cassia obtusifolia, CASOB); assay: as above; conditions: pre-emerge, rated 14 days after application, 0 = no damage, 100 = complete death
Procedure, shortened: as §3

[14] = system: green foxtail (Setaria viridis, SETVI); assay: Post-emerge test, greenhouse herbicide activity screening; conditions: phytotoxicity rating 0-100 (0 no damage, 100 complete death), 14 days after application
Procedure, shortened: (§4)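 Visual ratings on a 0-100 scale (0 no damage, 100 all plants dead) were taken at 14 days after treatment. Rates of 15-1000 g ai/ha in acetone, 187 l/ha, were sprayed onto soil one day after planting (pre-emerge) or onto 2-3 leaf plants with 0.25% v/v surfactant (post-emerge).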

[15] = system: johnsongrass (Sorghum halepense, SORHA); assay: as above; conditions: phytotoxicity rating 0-100 (0 no damage, 100 complete death), 14 days after application
Procedure, shortened: as §4

[16] = system: large crabgrass (Digitaria sanguinalis, DIGSA); assay: as above; conditions: phytotoxicity rating 0-100 (0 no damage, 100 complete death), 14 days after application
Procedure, shortened: as §4

[17] = system: redroot pigweed (Amaranthus retroflexus, AMARE); assay: as above; conditions: phytotoxicity rating 0-100 (0 no damage, 100 complete death), 14 days after application
Procedure, shortened: as §4

[18] = system: velvetleaf (Abutilon theophrasti, ABUTH); assay: as above; conditions: phytotoxicity rating 0-100 (0 no damage, 100 complete death), 14 days after application
Procedure, shortened: as §4

[19] = system: lambsquarters (Chenopodium album, CHEAL); assay: as above; conditions: phytotoxicity rating 0-100 (0 no damage, 100 complete death), 14 days after application
Procedure, shortened: as §4

[20] = system: ivyleaf morningglory (Ipomoea hederacea, IPOHE); assay: as above; conditions: phytotoxicity rating 0-100 (0 no damage, 100 complete death), 14 days after application
Procedure, shortened: as §4

[21] = system: barnyardgrass (Echinochloa crus-galli, ECHCG); assay: as above; conditions: phytotoxicity rating 0-100 (0 no damage, 100 complete death), 14 days after application
Procedure, shortened: as §4

[22] = system: sicklepod (Cassia obtusifolia, CASOB); assay: as above; conditions: phytotoxicity rating 0-100 (0 no damage, 100 complete death), 14 days after application
Procedure, shortened: as §4

COc1c(Cl)cc(F)c(-n2c(=O)cc(C(F)(F)F)n(C)c2=O)c1N(C(=O)C=C(C)C)C(=O)C=C(C)C [2-8]
0: Post-emerge Herbicidal Activity RICE (crop damage) ([2]; 63 g ai/ha) | Post-emerge Herbicidal Activity RICE (crop damage) ([2]; 250 g ai/ha) | Post-emerge Herbicidal Activity CORN (crop damage) ([3]; 63 g ai/ha) | Post-emerge Herbicidal Activity CORN (crop damage) ([3]; 250 g ai/ha) | Pre-emerge Herbicidal Activity ABUTH (phytotoxicity rating, scale 0-100) ([9]; 63 g ai/ha) | Pre-emerge Herbicidal Activity IPOHE (phytotoxicity rating, scale 0-100) ([11]; 63 g ai/ha) | Pre-emerge Herbicidal Activity ECHCG (phytotoxicity rating, scale 0-100) ([12]; 63 g ai/ha) | Pre-emerge Herbicidal Activity ECHCG (phytotoxicity rating, scale 0-100) ([12]; 250 g ai/ha) | Pre-emerge Herbicidal Activity CASOB (phytotoxicity rating, scale 0-100) ([13]; 63 g ai/ha) | Pre-emerge Herbicidal Activity CASOB (phytotoxicity rating, scale 0-100) ([13]; 250 g ai/ha) | Post-emerge Herbicidal Activity SETVI ([14]; 63 g ai/ha) | Post-emerge Herbicidal Activity SETVI ([14]; 250 g ai/ha) | Post-emerge Herbicidal Activity SORHA ([15]; 63 g ai/ha) | Post-emerge Herbicidal Activity SORHA ([15]; 250 g ai/ha) | Post-emerge Herbicidal Activity DIGSA ([16]; 63 g ai/ha) | Post-emerge Herbicidal Activity DIGSA ([16]; 250 g ai/ha) | Post-emerge Herbicidal Activity AMARE ([17]; 63 g ai/ha) | Post-emerge Herbicidal Activity ABUTH ([18]; 63 g ai/ha) | Post-emerge Herbicidal Activity CHEAL ([19]; 63 g ai/ha) | Post-emerge Herbicidal Activity IPOHE ([20]; 63 g ai/ha) | Post-emerge Herbicidal Activity ECHCG ([21]; 63 g ai/ha) | Post-emerge Herbicidal Activity ECHCG ([21]; 250 g ai/ha) | Post-emerge Herbicidal Activity CASOB ([22]; 63 g ai/ha) | Post-emerge Herbicidal Activity CASOB ([22]; 250 g ai/ha)
50: Pre-emerge crop damage RICE (phytotoxicity rating, scale 0-100) ([4]; 63 g ai/ha) | Pre-emerge crop damage RICE (phytotoxicity rating, scale 0-100) ([4]; 250 g ai/ha) | Post-emerge Herbicidal Activity IPOHE ([20]; 250 g ai/ha)
60: Pre-emerge Herbicidal Activity CHEAL (phytotoxicity rating, scale 0-100) ([10]; 63 g ai/ha) | Post-emerge Herbicidal Activity CHEAL ([19]; 250 g ai/ha)
15: Pre-emerge crop damage CORN (phytotoxicity rating, scale 0-100) ([5]; 63 g ai/ha) | Pre-emerge crop damage CORN (phytotoxicity rating, scale 0-100) ([5]; 250 g ai/ha)
90: Pre-emerge Herbicidal Activity SETVI (phytotoxicity rating, scale 0-100) ([6]; 63 g ai/ha) | Pre-emerge Herbicidal Activity SETVI (phytotoxicity rating, scale 0-100) ([6]; 250 g ai/ha)
80: Pre-emerge Herbicidal Activity DIGSA (phytotoxicity rating, scale 0-100) ([8]; 63 g ai/ha) | Pre-emerge Herbicidal Activity DIGSA (phytotoxicity rating, scale 0-100) ([8]; 250 g ai/ha)
100: Pre-emerge Herbicidal Activity AMARE (phytotoxicity rating, scale 0-100) ([1]; 250 g ai/ha) | Pre-emerge Herbicidal Activity ABUTH (phytotoxicity rating, scale 0-100) ([9]; 250 g ai/ha) | Pre-emerge Herbicidal Activity CHEAL (phytotoxicity rating, scale 0-100) ([10]; 250 g ai/ha) | Pre-emerge Herbicidal Activity IPOHE (phytotoxicity rating, scale 0-100) ([11]; 250 g ai/ha)
20: Post-emerge Herbicidal Activity AMARE ([17]; 250 g ai/ha)
40: Pre-emerge Herbicidal Activity AMARE (phytotoxicity rating, scale 0-100) ([1]; 63 g ai/ha) | Pre-emerge Herbicidal Activity SORHA (phytotoxicity rating, scale 0-100) ([7]; 63 g ai/ha) | Pre-emerge Herbicidal Activity SORHA (phytotoxicity rating, scale 0-100) ([7]; 250 g ai/ha) | Post-emerge Herbicidal Activity ABUTH ([18]; 250 g ai/ha)
